# From US20150266850A1 (E.I.DU PONT DE NEMOURS AND COMPANY, priority 2012, published 2015)
# Marks after values point to notes of the source that are not given here.
# Tests used:
# Format in all cases: in vivo
# [1] = system: Septoria nodorum; test: Test D: wheat glume blotch, preventive spray on wheat seedlings, visual disease rating; conditions: 100 = 100% disease control; for pest or weed control at 40 ppm: Parastagonospora nodorum, 216 h
# Description: (§1) General protocol for preparing test suspensions for Tests A-E: the test compounds were first dissolved in acetone in an amount equal to 11% of the final volume and then suspended at the desired concentration (in ppm) in acetone and purified water (50/50 mix by volume) containing 250 ppm of the surfactant Trem® 014 (polyhydric alcohol esters). The resulting test suspensions were then used in Tests A-E. Spraying a 200 ppm test suspension to the point of run-off on the test plants was the equivalent of a rate of 800 g/ha.
# The test suspension was sprayed to the point of run-off on wheat seedlings. The following day the seedlings were inoculated with a spore suspension of Septoria nodorum (the causal agent of wheat glume blotch) and incubated in a saturated atmosphere at 20° C. for 48 h, and then moved to a growth chamber at 20° C. for 7 days, after which time disease ratings were visually made.
# (§2) Results for Tests A-E are given in Table A. In the Table, a rating of 100 indicates 100% disease control and a rating of 0 indicates no disease control (relative to the controls). A dash (-) indicates no test results. All results are for 200 ppm except where followed by an “*”, which indicates 40 ppm or “**”, which indicates 50 ppm.
# [2] = system: Puccinia recondita f sp. tritici; test: Test B: wheat leaf rust, preventive spray on wheat seedlings, visual disease rating; conditions: 100 = 100% disease control; for pest or weed control at 40 ppm: 192 h
# Description: as §1
# The test suspension was sprayed to the point of run-off on wheat seedlings. The following day the seedlings were inoculated with a spore suspension of Puccinia recondita f sp. tritici (the causal agent of wheat leaf rust) and incubated in a saturated atmosphere at 20° C. for 24 h, and then moved to a growth chamber at 20° C. for 7 days, after which time disease ratings were visually made.
# as §2
# [3] = system: Septoria tritici; test: Test C: wheat leaf blotch, preventive spray on wheat seedlings, visual disease rating; conditions: 100 = 100% disease control
# Description: as §1
# The test suspension was sprayed to the point of run-off on wheat seedlings. The following day the seedlings were inoculated with a spore suspension of Septoria tritici (the causal agent of wheat leaf blotch) and incubated in a saturated atmosphere at 24° C. for 48 h, and then moved to a growth chamber at 20° C. for 19 days, after which time disease ratings were visually made.
# as §2
# [4] = system: Erysiphe graminis f. sp. tritici; test: Test A: wheat powdery mildew, preventive spray on wheat seedlings, visual disease rating; conditions: 100 = 100% disease control; for pest or weed control at 40 ppm: Blumeria graminis, 192 h
# Description: as §1
# The test suspension was sprayed to the point of run-off on wheat seedlings. The following day the seedlings were inoculated with a spore dust of Erysiphe graminis f. sp. tritici, (the causal agent of wheat powdery mildew) and incubated in a growth chamber at 20° C. for 8 days, after which time disease ratings were visually made.
# as §2
# [5] = system: Botrytis cinerea; test: Test E: tomato botrytis, preventive spray on tomato seedlings, visual disease rating; conditions: 100 = 100% disease control
# Description: as §1
# The test suspension was sprayed to the point of run-off on tomato seedlings. The following day the seedlings were inoculated with a spore suspension of Botrytis cinerea (the causal agent of tomato botrytis) and incubated in saturated atmosphere at 20° C. for 48 h, and then moved to a growth chamber at 27° C. for 3 additional days, after which time disease ratings were visually made.
# as §2
Compound,Test D disease control rating ([1]; 40 ppm (*)),Test B disease control rating ([2]; 40 ppm (*)),Test A disease control rating ([4]; 40 ppm (*)),Test E disease control rating ([5]; 40 ppm (*)),other results
COC(=O)NCc1cc(-n2ncc(-c3ccc(OC)cc3Cl)n2)ccc1C [Cmpd 68],100* %,100* %,100* %,77* %,Test C disease control rating ([3]; 40 ppm (*)): 99* %
COC(=O)NCc1cc(-c2ccn(-c3ccc(OC)cc3F)n2)ccc1C [Cmpd 19],,,,,Test B disease control rating ([2]; 200 ppm): 100%; Test C disease control rating ([3]; 200 ppm): 100%; Test A disease control rating ([4]; 200 ppm): 100%; Test E disease control rating ([5]; 200 ppm): 37%
COC(=O)NCc1cc(-n2ccc(-c3ccc(OC)cc3C3CC3)n2)ccc1C [Cmpd 82],100* %,100* %,99* %,0* %,
C#Cc1ccc(-c2cnn(-c3ccc(C)c(CNC(=O)OC)c3)n2)c(OC)c1 [Cmpd 99],100* %,100* %,99* %,14* %,
COC(=O)NCc1cc(-n2ncc(-c3ccc(C)cc3OC)n2)ccc1C [Cmpd 7],,,,,Test D disease control rating ([1]; 200 ppm): 100%; Test B disease control rating ([2]; 200 ppm): 100%; Test C disease control rating ([3]; 200 ppm): 100%; Test A disease control rating ([4]; 200 ppm): 100%; Test E disease control rating ([5]; 200 ppm): 26%
COC(=O)NCc1cc(-n2ccc(-c3ccc(OC)cc3Br)n2)ccc1C [Cmpd 59],100* %,100* %,99* %,52* %,Test C disease control rating ([3]; 40 ppm (*)): 97* %
COC(=O)NCc1cc(-c2ccn(-c3ccc(C#N)cc3C#N)n2)ccc1C [Cmpd 93],,,,,Test D disease control rating ([1]; 200 ppm): 64%; Test B disease control rating ([2]; 200 ppm): 0%; Test A disease control rating ([4]; 200 ppm): 0%; Test E disease control rating ([5]; 200 ppm): 0%
COC(=O)NCc1cc(-n2ncc(-c3ccc(OC)cc3OCC#N)n2)ccc1C [Cmpd 73],100* %,100* %,99* %,0* %,
COC(=O)NCc1cc(-n2ncc(-c3ccc(OC)cc3[N+](=O)[O-])n2)ccc1C [Cmpd 85],100* %,100* %,99* %,0* %,
COC(=O)NCc1cc(-n2ncc(-c3ccc(I)cc3OC)n2)ccc1C [Cmpd 95],100* %,100* %,98* %,0* %,
CCOc1cc(OC)ccc1-c1cnn(-c2ccc(C)c(CNC(=O)OC)c2)n1 [Cmpd 88],100* %,100* %,100* %,0* %,
CCc1cc(OC)ccc1-c1ccn(-c2ccc(C)c(CNC(=O)OC)c2)n1 [Cmpd 83],100* %,100* %,99* %,0* %,
COC(=O)NCc1cc(-n2ncc(-c3ccc(C)cc3C)n2)ccc1C [Compound 97],100* %,100* %,99* %,43* %,
C#Cc1cc(OC)ccc1-c1cnn(-c2ccc(C)c(CNC(=O)OC)c2)n1 [Cmpd 47],100* %,100* %,99* %,0* %,
COC(=O)NCc1cc(-n2ccc(-c3ccc(C(C)=O)cc3C)n2)ccc1C [Cmpd 140],100* %,100* %,91* %,,Test C disease control rating ([3]; 40 ppm (*)): 94* %
C#CCOc1cc(OC)ccc1-c1cnn(-c2ccc(C)c(CNC(=O)OC)c2)n1 [Cmpd 74],100* %,100* %,98* %,8* %,
COC(=O)NCc1cc(-n2ncc(-c3ccc(OC)cc3I)n2)ccc1C [Cmpd 96],100* %,100* %,99* %,70* %,
CCOc1ccc(-c2ccn(-c3ccc(C)c(CNC(=O)OC)c3)n2)c(C)c1 [Cmpd 128],100* %,100* %,99* %,,Test C disease control rating ([3]; 40 ppm (*)): 98* %
COC(=O)NCc1cc(-n2ncc(-c3ccc(C)cc3OCC#N)n2)ccc1C [Cmpd 98],100* %,100* %,95* %,6* %,
"COC(=O)NCc1cc(-n2ccc(-c3ccc(C)nc3C)n2)ccc1C [Compound 130, methyl N-[[5-[3-(2,6-dimethyl-3-pyridinyl)-1H-pyrazol-1-yl]-2-methylphenyl]methyl]carbamate]",,,,,"pest or weed control at 40 ppm ([1]; 40 ppm (*)): 100%; pest or weed control at 40 ppm ([2]; 40 ppm (*)): 99%; pest or weed control at 40 ppm ([3]; Zymoseptoria tritici, 504 h, 40 ppm (*)): 86%; pest or weed control at 40 ppm ([4]; 40 ppm (*)): 96%"
COC(=O)NCc1cc(-n2ncc(-c3ccc(OCC#N)cc3C)n2)ccc1C [Cmpd 105],100* %,99* %,90* %,,Test C disease control rating ([3]; 40 ppm (*)): 86* %
COC(=O)NCc1cc(-n2ncc(-c3ccc(OC)cc3I)[n+]2[O-])ccc1C [Compound 94],,,,,"pest or weed control at 40 ppm ([1]; 40 ppm (*)): 100%; pest or weed control at 40 ppm ([2]; 40 ppm (*)): 100%; pest or weed control at 40 ppm ([4]; 40 ppm (*)): 98%; pest or weed control at 40 ppm ([5]; Botrytis cinerea, 120 h, 40 ppm (*)): 11%"
methyl N-[[5-[3-(6-methoxy-2-methyl-3-pyridinyl)-1H-pyrazol-1-yl]-2-methylphenyl]methyl]carbamate [Compound 115],100* %,100* %,100* %,,Test C disease control rating ([3]; 40 ppm (*)): 99* %
COC(=O)NCc1cc(-n2ccc(-c3ccc(I)cc3Cl)n2)ccc1C [Cmpd 92],100* %,100* %,99* %,33* %,
COC(=O)NCc1cc(-n2ccc(-c3ccc(C)nc3OC)n2)ccc1C [Cmpd 131],100* %,100* %,99* %,,Test C disease control rating ([3]; 40 ppm (*)): 97* %
C=CCOc1cc(OC)ccc1-c1cnn(-c2ccc(C)c(CNC(=O)OC)c2)n1 [Cmpd 75],100* %,100* %,90* %,8* %,
